Assay results as given in patent US20100105602A1, “TREATMENT OF INT[…] INFECTIONS” (Novozymes A/S, priority 2008, published 2010).

Assays:
[1] = tested on: Staphylococcus aureus ATCC25923 (MSSA) in THP-1 macrophages; assay: In vitro intracellular activity in infected THP-1 macrophages, S. aureus ATCC25923; format: cell-based; settings: for Emax (95% CI): decrease in log CFU after 24 hours compared to original inoculum
Method: (§1) For studies of Plectasin, two strains of S. aureus were applied: ATCC25923 (MSSA) and E33235 (MSSA, axil, clinical isolate from Statens Serum Institute, Denmark).
(§2) For studies of Defensin2114, […] of S. aureus were used: ATCC25923 (MSSA), MRSA (clinical septicaemia isolate, Statens Serum Institute, ref. no. 1-15479) and VRSA2 (Pennsylvania HIP 11983).
(§3) Overnight culture of bacteria was opsonized for 45 min with human serum (AB positive, Lonza, USA). Afterwards the bacteria were tittered using a spectrophotometer (CECIL 2040) and THP-1 macrophages were counted and then infected with 4 bacteria/cell. THP-1 cells were cultured in RPMI 1640 medium supplemented with fetal calf serum.
(§4) The bacteria were incubated with cells for 1 hour at 37° C., CO2 5%, to allow phagocytosis.
(§5) After 1 hour of incubation the infected cells were incubated 45 min with Gentamicin (50 micrograms/mL) to eradicate remaining non-phagocytosed bacteria. To remove Gentamicin after incubation cells were washed 3× with PBS. After the third wash, cells were re-suspended in RPMI 1640 medium (+10% fetal calf serum) and Plectasin or Defensin2114 was added at desired concentrations (0-128×MIC). One sample was incubated with Gentamicin at 1×MIC for control of intracellular growth. In studies of Defensin2114 the activity was compared to that of vancomycin and daptomycin.
(§6) Cells were incubated in 6-well plates for 24 hours at 37° C., CO2 5%.
(§7) After incubation cells were washed in PBS and subsequently re-suspended in sterile water to release intracellular bacteria.
(§8) Samples were diluted regarding to the expected amount of CFU and spread on TSA plates and incubated at 35° C. overnight. After 24 hours incubation the CFU were counted.
(§9) The samples may be stored at −20° C. for up to one week. Samples were sonicated and proteins titered as described by Lowry et al. hereby obtaining results as CFU/mg protein. All samples were tested in triplicates.
(§10) In vitro intracellular dose-response studies: For analysis of dose-effect relationships, the Hill-equation (slope=1) was employed to calculate the maximal relative efficacy, Emax, static concentration (Cstatic) and goodness-of-fit. These parameters were determined using non-linear regression.

[2] = tested on: Staphylococcus aureus MRSA (1-15479) in THP-1 macrophages; assay: In vitro intracellular activity in infected THP-1 macrophages, MRSA (1-15479); format: cell-based; settings: for Cstatic / Emax (95% CI): MRSA (1-15479), THP-1 macrophages, 24 hours
Method: as §2, §3, §4, §5, §6, §7, §8, §9, §10

[3] = tested on: Staphylococcus aureus VRSA2 (Pennsylvania HIP 11983) in THP-1 macrophages; assay: In vitro intracellular activity in infected THP-1 macrophages, VRSA2; format: cell-based; settings: for Cstatic / Emax (95% CI): VRSA2, THP-1 macrophages, 24 hours
Method: as §2, §3, §4, §5, §6, §7, §8, §9, §10

[4] = tested on: Staphylococcus aureus E33235 (MSSA) in THP-1 macrophages; assay: In vitro intracellular activity in infected THP-1 macrophages, S. aureus E33235; format: cell-based; settings: S. aureus E33235, THP-1 macrophages, 24 hours
Method: as §1, §3, §4
After 1 hour of incubation the infected cells were incubated 45 min with Gentamicin (50 micrograms/mL) to eradicate remaining non-phagocytosed bacteria. To remove Gentamicin after incubation cells were washed 3× with PBS. […]
Samples were diluted regarding to the expected amount of CFU and spread on TSA plates and incubated at 35° C. overnight. After 24 hours incubation the CFU were counted. […]
as §10

[5] = Kinetics study, serum, and PK/PD parameters of dosing regimens; format: in vivo, mice; design: AUC(free) / Peak / Cpeak: unit not given here; settings: for AUC(free): free serum concentrations
Method: Animals were dosed from 4.25-34 mg/kg
The serum was separated and stored at −20° C. until analysis by LCMSMS using internal and external standards. Serum binding was calculated to 90%.
Pharmacokinetic parameters were determined through intrapolation from free serum concentrations using GraphPad Prism.

[6] = tested on: Staphylococcus aureus E33235; assay: Mouse peritonitis model, intra- and extracellular effect; format: in vivo, mice
Method: This Example presents an in vivo study of the efficacy of Plectasin against intracellular Staphylococcus aureus E33235 in an animal model of infection (peritonitis), including assessment of both intra- and extracellular effect. Staphylococcus aureus E33235 is a clinically isolated strain obtainable from Statens Serum Institut, Denmark.
Staphylococcus aureus E33235 was spread on 5% blood plates and incubated overnight at 37° C. at ambient air. A 10% w/v Mucin solution was prepared in NaCl. The solution was sterilized and pH adjusted to pH 7.0.
Colonies of Staphylococcus aureus were suspended in saline to approx. 10^8 CFU/mL (OD=0.13). A 1:1 dilution with the 10% Mucin stock solution was prepared making a solution of 5% Mucin and 5×10^7 CFU/mL.
A solution of 50 mg/mL lysostaphin was prepared in HBSS (Hanks Balanced Salt Solution).
Two hours before treatment (T=0) the mice were inoculated i.p. with 0.5 mL Staphylococcus aureus suspension (with 5% Mucin).
The injected dose volume was 0.6 or 0.3 mL/animal. The first dose was injected two hours after inoculation (T=2).
At T=2 and T=6 hours control animals were sacrificed and peritoneal wash performed. 24 hours after first treatment, the remaining treated animals were sacrificed. Peritoneal wash was performed after sacrifice of animals by cervical dislocation.
Negative control (cell free): Inoculum at 10^8 CFU/mL of S. aureus E 33235 (OD=0.13) in saline was prepared just before the last separation assay of the day. The negative control was handled exactly as the test samples. Microscopy and cell-count of the negative control are not shown. Each sample was handled as described in Table 6.
CFU counts from peritoneal fluid from treated animals were compared to PK/PD parameters to assess the correlation between intra- and extracellular effect of Plectasin to Cpeak, T>MIC and AUC/MIC.
Correlation (Hills) between the most predictive PK/PD-parameter. Effect was determined as the decrease in CFU in the peritoneal fluid 24 hours after the first treatment. Parameters were estimated by multiple regression analysis.

[7] = S. aureus ATCC25923, THP-1 macrophages, 24 hours, no apparent growth
[8] = S. aureus ATCC25923, THP-1 macrophages
[9] = S. aureus ATCC25923, THP-1 macrophages, 24 hours, Table 1
[10] = b.i.d. treatment with 34 mg/kg, peritoneal fluid, 24 hours after first treatment

CCCCCCCCCC(=O)N[C@@H](Cc1c[nH]c2ccccc12)C(=O)N[C@H](CC(N)=O)C(=O)N[C@@H](CC(=O)O)C(=O)N[C@@H]1C(=O)NCC(=O)N[C@@H](CCCN)C(=O)N[C@@H](CC(=O)O)C(=O)N[C@H](C)C(=O)N[C@@H](CC(=O)O)C(=O)NCC(=O)N[C@H](CO)C(=O)N[C@@H]([C@H](C)CC(=O)O)C(=O)N[C@@H](CC(=O)c2ccccc2N)C(=O)O[C@@H]1C [Daptomycin, reference compound]
Cstatic [1, 7]: 0.6 ×MIC
Emax (95% CI) [1, 8]: −1.00 log CFU
Cstatic [2]: 1.8 ×MIC
Emax (95% CI) [2]: −0.85 log CFU
Cstatic [3]: 1.3 ×MIC
Emax (95% CI) [3]: −0.29 log CFU

CC[C@H](C)[C@@H]1NC(=O)[C@H](CO)NC(=O)[C@H](CCCCN)NC(=O)[C@@H]2CSSC[C@@H](C(=O)N[C@@H](Cc3ccc(O)cc3)C(=O)O)NC(=O)[C@H](CCCCN)NC(=O)[C@@H]3CSSC[C@H](NC(=O)[C@H](CCC(N)=O)NC(=O)[C@H](CCSC)NC(=O)[C@H](CC(=O)O)NC(=O)[C@H](CC(=O)O)NC(=O)[C@H](CCC(=O)O)NC(=O)[C@H](CC(=O)O)NC(=O)[C@H](Cc4c[nH]c5ccccc45)NC(=O)[C@@H]4CCCN4C(=O)CNC(=O)[C@H](CC(N)=O)NC(=O)[C@@H](NC(=O)CNC(=O)[C@H](Cc4ccccc4)NC(=O)CN)CSSC[C@H](NC(=O)[C@H](Cc4ccc(O)cc4)NC(=O)CNC(=O)CNC(=O)[C@H](CCCCN)NC(=O)[C@H](Cc4ccc(O)cc4)NC(=O)CNC(=O)[C@H](CCCCN)NC1=O)C(=O)N[C@@H](C)C(=O)N[C@@H](CCCCN)C(=O)NCC(=O)NCC(=O)N[C@@H](Cc1ccccc1)C(=O)N[C@@H](C(C)C)C(=O)N3)C(=O)N[C@@H](Cc1c[nH]cn1)C(=O)N[C@@H](CC(N)=O)C(=O)N[C@@H](Cc1c[nH]cn1)C(=O)N2 [Plectasin]
Cstatic [4]: 0.6 ×MIC
Emax (CI) [4]: −0.97 log CFU
Cstatic [1, 9]: 0.6 ×MIC
Emax (CI) [1, 9]: −1.35 log CFU
Peak ([5]; dose 4.25 mg/kg): 1.61
AUC(free) ([5]; dose 4.25 mg/kg): 1.901
Peak ([5]; dose 8.5 mg/kg): 2.32
AUC(free) ([5]; dose 8.5 mg/kg): 3.955
Peak ([5]; dose 17 mg/kg): 4.95
AUC(free) ([5]; dose 17 mg/kg): 8
Peak ([5]; dose 34 mg/kg): 5.99
AUC(free) ([5]; dose 34 mg/kg): 13.25
fraction unbound ([5]; mouse, serum, LCMSMS, read-out: Serum binding (converted)): 0.1
Cpeak ([5]; regimen 1: 34 mg/kg, 1 dose in 24 hours): 5.99
Cpeak ([5]; regimen 2: 17 mg/kg, 1 dose in 24 hours): 4.95
Cpeak ([5]; regimen 3: 8.5 mg/kg, 1 dose in 24 hours): 2.32
Cpeak ([5]; regimen 4: 4.25 mg/kg, 1 dose in 24 hours): 1.61
Cpeak ([5]; regimen 5: 17 mg/kg, 2 doses in 24 hours): 5.99
Cpeak ([5]; regimen 6: 8.5 mg/kg, 2 doses in 24 hours): 2.32
Cpeak ([5]; regimen 7: 34 mg/kg, 3 doses in 24 hours): 5.99
Cpeak ([5]; regimen 8: 4.25 mg/kg, 3 doses in 24 hours): 1.61
Cpeak ([5]; regimen 9: 8.5 mg/kg, 4 doses in 24 hours): 2.32
Cpeak ([5]; regimen 10: 8.5 mg/kg, 6 doses in 24 hours): 2.32
Max Δ log Decrease in CFU Extracellularly [6, 10]: −2.55 (SD: 0.150) Δ log
Max Δ log Decrease in CFU Intracellularly [6, 10]: −1.25 (SD: 0.058) Δ log
effect in the mouse peritonitis model ([6]; s.c. treatment, S. aureus E33235 i.p.): showed both intra- and extracellular effect

CN[C@H](CC(C)C)C(=O)N[C@H]1C(=O)N[C@@H](CC(N)=O)C(=O)N[C@H]2C(=O)N[C@H]3C(=O)N[C@H](C(=O)N[C@H](C(=O)O)c4cc(O)cc(O)c4-c4cc3ccc4O)[C@H](O)c3ccc(c(Cl)c3)Oc3cc2cc(c3O[C@@H]2O[C@H](CO)[C@@H](O)[C@H](O)[C@H]2O[C@H]2C[C@](C)(N)[C@H](O)[C@H](C)O2)Oc2ccc(cc2Cl)[C@H]1O [Vancomycin, reference compound]
Cstatic [1, 7]: 2.9 ×MIC
Emax (95% CI) [1, 8]: −0.64 log CFU
Cstatic [2]: 6.2 ×MIC
Emax (95% CI) [2]: −0.66 log CFU

Defensin2114: defensin polypeptide shown as SEQ ID NO: 1; synthetic defensin derived from Plectasin (GFGCNGPWNEDDLRCHNHCKSIKGYKGGYCAKGGFVCKCY)
Emax comparison, one-way ANOVA (Tukeys test) ([1]; ATCC25923): significantly lower Emax value than both daptomycin and vancomycin
Cstatic [1, 7]: 0.8 ×MIC
Emax (95% CI) [1, 8]: −1.51 log CFU
Cstatic [2]: 1.1 ×MIC
Emax (95% CI) [2]: −0.93 log CFU
Emax comparison, one-way ANOVA (Tukeys test) ([2]; MRSA, P<0.01): significantly lower Emax value than vancomycin
Emax comparison, one-way ANOVA (Tukeys test) ([3]; VRSA): No difference in Emax value between Defensin2114 and daptomycin
Cstatic [3]: 2.3 ×MIC
Emax (95% CI) [3]: −0.22 log CFU
